In patent US9802942B2, “Substituted 4-methyl-pyrrolo[1,2-A]pyrimidine-8-carboxamide compounds and uses thereof for modulating glucocerebrosidase activity” (Northwestern University, priority 2015, dated 2017):

target: T1, glucocerebrosidase (GCase), recombinant wt. enzyme velaglucerase alfa (Homo sapiens, UniProt P04062); experiment: Glucocerebrosidase activity assay with blue substrate (4MU-Glc); format: biochemical; settings: Table 1
T1 construct: purchased Shire Human Genetic Therapies, Inc. Vpriv
T1 sequence (P04062 40-536): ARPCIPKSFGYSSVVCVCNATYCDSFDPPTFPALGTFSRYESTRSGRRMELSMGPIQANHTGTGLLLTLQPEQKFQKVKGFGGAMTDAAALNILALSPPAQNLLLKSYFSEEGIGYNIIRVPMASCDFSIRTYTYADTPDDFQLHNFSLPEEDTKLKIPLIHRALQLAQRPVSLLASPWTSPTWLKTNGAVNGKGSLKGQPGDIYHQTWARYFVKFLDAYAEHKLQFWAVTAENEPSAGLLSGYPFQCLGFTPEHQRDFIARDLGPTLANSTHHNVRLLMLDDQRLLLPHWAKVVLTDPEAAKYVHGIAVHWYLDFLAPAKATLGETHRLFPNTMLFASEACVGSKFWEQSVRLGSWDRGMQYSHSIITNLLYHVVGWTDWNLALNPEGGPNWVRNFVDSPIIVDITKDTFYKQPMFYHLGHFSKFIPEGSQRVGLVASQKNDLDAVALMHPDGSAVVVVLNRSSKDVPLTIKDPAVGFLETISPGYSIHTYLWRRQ
Protocol: The compounds in DMSO solution 0.5 μL/well were transferred to a black 96-well plate (the final titration was 24 nM to 50 μM, 12 concentrations, 2 times dilution). 33.5 μL enzyme solution (7.5 nM final concentration) was transferred to the wells. After 5 min of incubation at room temperature, the enzyme reaction was initiated by the addition of 33 μL/well blue substrate or 66.5 μL/well red substrate. Final concentrations of the blue substrate (4MU-Glc) and red substrate (Res-Glc) were 1.5 mM and 30 μM, respectively. The red substrate reaction was measured in the Biotek Synergy H1 multi-mode plate reader with Ex=573 nm and Em=610 nm at 37° C. every 20 sec for 30 min. The blue substrate reaction was terminated by the addition of 33 μL/well stop solution (1 M NaOH and 1 M glycine mixture, pH 10) after 30 min of incubation at 37° C. The fluorescence was then measured in the plate reader at Ex=365 nm and Em=440 nm.
The recombinant wt. enzyme velaglucerase alfa (Vpriv®, Shire Human Genetic Therapies, Inc.) was obtained from residual solution after clinical infusions. The GCase activity assay buffer was composed of 50 mM citric acid, 176 mM K2HPO4, and 0.01% Tween-20 at pH 5.9. A solution of 1 M sodium hydroxide and 1 M glycine was used as the stop solution for the 4MU-β-glc substrate assay.
The compounds in DMSO solution 0.5 μL/well was transferred to a black 96-well plate (the final titration was 24 nM to 50 μM, 12 concentrations). 33.5 μL enzyme solution (7.5 nM final concentration) was transferred to the wells. After 5 min of incubation at room temperature, the enzyme reaction was initiated by the addition of 33 μL/well 4MU-Glc substrate or 66.5 μL/well red substrate. Final concentrations of the 4MU-Glc substrate and Res-Glc substrate were 1.5 mM and 30 μM, respectively. The red substrate reaction was measured in the Biotek Synergy H1 multi-mode plate reader with Ex=573 nm and Em=610 nm at 37° C. in every 20 seconds for 30 min. The 4MU-Glc substrate reaction was terminated by the addition of 33 μL/well stop solution (1 M NaOH and 1 M glycine mixture, pH 10) after 30 min of incubation at 37° C. The fluorescence was then measured in the plate reader with Ex=365 nm and Em=440 nm.

Row | Activator / Inhibitor (word in Ac50 cell) | SMILES
1 | Activator | Cc1cc(C)n2ccc(C(=O)Nc3ccc(-c4cn(CCCCCCC(=O)O)nn4)cc3)c2n1 [compound 58]
2 | Activator | Cc1cc(C)n2ccc(C(=O)Nc3ccc(-c4cn(CCCCC(=O)O)nn4)cc3)c2n1 [compound 57]
3 | Activator | Cc1cc(C)n2ccc(C(=O)Nc3ccc(-c4cn(CCCCC(=O)ON5C(=O)CCC5=O)nn4)cc3)c2n1 [compound 60]
4 | Activator | Cc1cc(C)n2ccc(C(=O)Nc3ccc(-c4cn(CCCCCCCCC(=O)ON5C(=O)CCC5=O)nn4)cc3)c2n1 [compound 62]
5 | Inhibitor | COc1ccc2nc(NC(=O)c3ccn4c(C)cc(C)nc34)sc2c1 [compound 47]

same assay, conditions: Table 1; titration 24 nM to 50 μM; substrate not given; read-out: Ac50

Row | SMILES | AC50 [µM]
6 | Cc1cc(C)n2ccc(C(=O)Nc3nc4ccccc4s3)c2n1 [compound 31] | 0.4
7 | Cc1cc(C)n2ccc(C(=O)Nc3nccc4ccccc34)c2n1 [compound 21] | 39.8
8 | Cc1cc(C)n2ccc(C(=O)Nc3ccc(CCN4CCCCC4)cc3)c2n1 [compound 15] | 39.8
9 | Cc1cc(C)n2ccc(C(=O)NC3CCN(c4ccccc4)CC3)c2n1 [compound 35] | 22.4
10 | Cc1cc(C)n2ccc(C(=O)Nc3ccc(C(F)(F)F)cc3)c2n1 [compound 5] | 0.8
11 | Cc1cc(C)n2ccc(C(=O)Nc3ccncc3)c2n1 [compound 22] | 25.1
12 | Cc1cc(C)n2ccc(C(=O)Nc3ccc(CN4CCOCC4)cc3)c2n1 [compound 7] | 112
13 | Cc1cc(C)n2ccc(C(=O)Nc3ccc(N4CCCCC4)cc3)c2n1 [compound 18] | 1.58
14 | Cc1cc(C)n2ccc(C(=O)Nc3ccc(Oc4ccccc4)cc3)c2n1 [compound 54] | 0.56
15 | Cc1cc(C)n2ccc(C(=O)Nc3ccc(N4CCN(Cc5ccccc5)CC4)cc3)c2n1 [compound 12] | 5.01
16 | Cc1cc(C)n2ccc(C(=O)Nc3ccc(Cc4ccccc4)cc3)c2n1 [compound 13] | 0.79
17 | Cc1cc(C)n2ccc(C(=O)NC3CCC(N(C)C)CC3)c2n1 (stereo not drawn) [compound 37] | 40
18 | Cc1cc(C)n2ccc(C(=O)Nc3ccc(C(=O)c4ccccc4)cc3)c2n1 [compound 53] | 0.14
19 | Cc1cc(C)n2ccc(C(=O)Nc3ccc(N4CCC(N(C)C)CC4)cc3)c2n1 [compound 50] | 10
20 | Cc1cc(C)n2ccc(C(=O)Nc3ccc(C#Cc4ccccc4)cc3)c2n1 [compound 38] | 0.79
21 | CCc1nnc(NC(=O)c2ccn3c(C)cc(C)nc23)s1 [compound 44] | 22.4

Row | SMILES | AC50 [µM]
22 | Cc1cc(C)n2ccc(C(=O)Nc3ccc(CN4CCCCC4)cc3)c2n1 [compound 9] | 70.8
23 | Cc1cc(C)n2ccc(C(=O)Nc3nc4cc(F)ccc4s3)c2n1 [compound 42] | 50.2
24 | Cc1cc(C)n2ccc(C(=O)Nc3nc4ccccc4[nH]3)c2n1 [compound 26] | 1.26
25 | Cc1cc(C)n2ccc(C(=O)NC3CCN(Cc4ccccc4)CC3)c2n1 [compound 32] | 50
26 | Cc1cc(C)n2ccc(C(=O)Nc3nc4cc(Cl)ccc4s3)c2n1 [compound 41] | 39.9
27 | Cc1cc(C)n2ccc(C(=O)Nc3ccc(N4CCCC4)cc3)c2n1 [compound 25] | 0.51
28 | CCN1CCN(c2ccc(NC(=O)c3ccn4c(C)cc(C)nc34)cc2)CC1 [compound 11] | 31.6
29 | Cc1cc(C)n2ccc(C(=O)Nc3cnn4c(C)cc(C)nc34)c2n1 [compound 46] | 0.45
30 | Cc1cc(C)n2ccc(C(=O)NC3CCc4ccccc43)c2n1 (stereo not drawn) [compound 28] | 3.98
31 | Cc1cc(C)n2ccc(C(=O)Nc3ccc(CCN4CCOCC4)cc3)c2n1 [compound 14] | 31.6
32 | Cc1cc(C)n2ccc(C(=O)Nc3nc4c(s3)CN(C)CC4)c2n1 [compound 39] | 39.8
33 | CCCn1cnc(NC(=O)c2ccn3c(C)cc(C)nc23)n1 [compound 49] | 39.8
34 | Cc1cc(C)n2ccc(C(=O)Nc3nc4c(C)cccc4s3)c2n1 [compound 43] | 0.2
35 | Cc1cc(C)n2ccc(C(=O)NC3CCN(C(C)C)CC3)c2n1 [compound 34] | 30
36 | Cc1cc(C)n2ccc(C(=O)Nc3ccccn3)c2n1 [compound 23] | 22.4
37 | Cc1cc(C)n2ccc(C(=O)NC3Cc4ccccc4C3)c2n1 [compound 29] | 2.51

Next, values leading:

Row | AC50 [µM] | SMILES
38 | 0.4 | Cc1cc(C)n2ccc(C(=O)Nc3ccc(-c4cn(CCCCCCC(=O)ON5C(=O)CCC5=O)nn4)cc3)c2n1 [compound 61]
39 | 1.78 | Cc1cc(C)n2ccc(C(=O)Nc3ccc(-c4cn(CCCCCCC(=O)O)nn4)cc3)c2n1 [compound 58]
40 | 8.91 | Cc1cc(C)n2ccc(C(=O)Nc3ccc(-c4cn(CCOCCOCCC(=O)NCCN5CCOCC5)nn4)cc3)c2n1 [compound 67]
41 | 0.14 | C#Cc1ccc(NC(=O)c2ccn3c(C)cc(C)nc23)cc1 [compound 1]
42 | 3.55 | Cc1cc(C)n2ccc(C(=O)Nc3ccc(-c4cn(CCOCCOCCC(=O)NC5CCC5)nn4)cc3)c2n1 [compound 70]
43 | 107 | Cc1cc(C)n2ccc(C(=O)Nc3ccc(-n4ccnc4)cc3)c2n1 [compound 36]
44 | 15.8 | Cc1cc(C)n2ccc(C(=O)Nc3ccc(OCCC(=O)O)cc3)c2n1 [compound 56]
45 | 0.2 | Cc1cc(C)n2ccc(C(=O)Nc3ccc(N=[N+]=[N-])cc3)c2n1 [compound 52]
46 | 3.55 | Cc1cc(C)n2ccc(C(=O)Nc3ccc(N(C)C)cc3)c2n1 [compound 17]
47 | 7.08 | Cc1cc(C)n2ccc(C(=O)Nc3ccc(-c4cn(CCCCC(=O)O)nn4)cc3)c2n1 [compound 57]
48 | 0.63 | Cc1cc(C)n2ccc(C(=O)Nc3ccc(-c4cn(CCCCC(=O)ON5C(=O)CCC5=O)nn4)cc3)c2n1 [compound 60]
49 | 7.07 | Cc1cc(C)n2ccc(C(=O)Nc3ccc(-c4cn(CCCN)nn4)cc3)c2n1 [compound 64]
50 | 7.08 | Cc1cc(C)n2ccc(C(=O)Nc3ccc(-c4cn(CCOCCN)nn4)cc3)c2n1 [compound 65]
51 | 10 | Cc1cc(C)n2ccc(C(=O)Nc3ccc(-c4cn(CCOCCOCCC(=O)NCCC5CCCN5C)nn4)cc3)c2n1 (stereo not drawn) [compound 68]
52 | 7.94 | Cc1cc(C)n2ccc(C(=O)Nc3ccc(-c4cn(CCOCCOCCOCCN)nn4)cc3)c2n1 [compound 66]
53 | 0.45 | Cc1cc(C)n2ccc(C(=O)Nc3ccc(-c4cn(CCCCCCCCC(=O)ON5C(=O)CCC5=O)nn4)cc3)c2n1 [compound 62]
54 | 39.8 | Cc1cc(C)n2ccc(C(=O)Nc3ccc(-c4cn(CCN(C)C)nn4)cc3)c2n1 [compound 63]
55 | 2 | Cc1cc(C)n2ccc(C(=O)Nc3ccc(-c4cn(CCOCCOCCC(=O)NC5CCCCC5)nn4)cc3)c2n1 [compound 69]

same assay, conditions: Table 2

Row | activator (word in Activity cell) | SMILES
56 | activator | Cc1cc(C)n2ccc(C(=O)Nc3ccc(C#CCCCCCCCCC(=O)ON4C(=O)CCC4=O)cc3)c2n1 [compound 82]
57 | activator | COC(=O)CCCCCc1cccc(NC(=O)c2ccn3c(C)cc(C)nc23)c1 [compound 81]
58 | activator | Cc1cc(C)n2ccc(C(=O)Nc3ccc(-c4cn(CCOCCOCCC(=O)NCCOCCOCCOCCNC(=O)CCOCCOCCn5cc(-c6ccc(NC(=O)c7ccn8c(C)cc(C)nc78)cc6)nn5)nn4)cc3)c2n1 [compound 71]
59 | activator | Cc1cc(C)n2ccc(C(=O)Nc3ccc(I)cc3)c2n1 [compound 73]
60 | activator | Cc1cc(C)n2ccc(C(=O)Nc3ccc(C#CCCCCCCC#Cc4ccc(N)cc4)cc3)c2n1 [compound 75]
61 | activator | COC(=O)CCCCCCCCC#Cc1ccc(NC(=O)c2ccn3c(C)cc(-c4cccnc4)nc23)cc1 [compound 78]
62 | activator | COC(=O)CCCC#Cc1cccc(NC(=O)c2ccn3c(C)cc(C)nc23)c1 [compound 80]
63 | activator | Cc1cc(C)n2ccc(C(=O)NCc3cccnc3Oc3ccccc3)c2n1 [compound 72]
64 | activator | Cc1cc(-c2cccnc2)nc2c(C(=O)Nc3ccc(C#CCCCCCCCCC(=O)O)cc3)ccn12 [compound 79]

same assay, conditions: Table 2; values marked activator; read-out: Activity AC50 or IC50

Row | AC50 [µM] | SMILES
65 | 0.8 | Cc1cc(C)n2ccc(C(=O)Nc3ccc(C#CCCCCCCCCC(=O)ON4C(=O)CCC4=O)cc3)c2n1 [compound 82]
66 | 1.78 | COC(=O)CCCCCc1cccc(NC(=O)c2ccn3c(C)cc(C)nc23)c1 [compound 81]
67 | 1.26 | Cc1cc(C)n2ccc(C(=O)Nc3ccc(-c4cn(CCOCCOCCC(=O)NCCOCCOCCOCCNC(=O)CCOCCOCCn5cc(-c6ccc(NC(=O)c7ccn8c(C)cc(C)nc78)cc6)nn5)nn4)cc3)c2n1 [compound 71]
68 | 0.316 | Cc1cc(C)n2ccc(C(=O)Nc3ccc(I)cc3)c2n1 [compound 73]
69 | 1.26 | Cc1cc(C)n2ccc(C(=O)Nc3ccc(C#CCCCCCCC#Cc4ccc(N)cc4)cc3)c2n1 [compound 75]
70 | 0.71 | COC(=O)CCCCCCCCC#Cc1ccc(NC(=O)c2ccn3c(C)cc(-c4cccnc4)nc23)cc1 [compound 78]
71 | 6.13 | Cc1cc(C)n2ccc(C(=O)NCc3cccnc3Oc3ccccc3)c2n1 [compound 72]
72 | 3.54 | Cc1cc(-c2cccnc2)nc2c(C(=O)Nc3ccc(C#CCCCCCCCCC(=O)O)cc3)ccn12 [compound 79]
